This note sets out measurements from patent publication US12252484B2, “Pyrazolopyridine compounds for the treatment of autoimmune disease” (Hoffmann-La Roche Inc., priority 2018, dated 2025).

One assay addresses T1, human TLR8 (Homo sapiens, UniProt Q9NR97).
T1 sequence (Q9NR97 27-1041): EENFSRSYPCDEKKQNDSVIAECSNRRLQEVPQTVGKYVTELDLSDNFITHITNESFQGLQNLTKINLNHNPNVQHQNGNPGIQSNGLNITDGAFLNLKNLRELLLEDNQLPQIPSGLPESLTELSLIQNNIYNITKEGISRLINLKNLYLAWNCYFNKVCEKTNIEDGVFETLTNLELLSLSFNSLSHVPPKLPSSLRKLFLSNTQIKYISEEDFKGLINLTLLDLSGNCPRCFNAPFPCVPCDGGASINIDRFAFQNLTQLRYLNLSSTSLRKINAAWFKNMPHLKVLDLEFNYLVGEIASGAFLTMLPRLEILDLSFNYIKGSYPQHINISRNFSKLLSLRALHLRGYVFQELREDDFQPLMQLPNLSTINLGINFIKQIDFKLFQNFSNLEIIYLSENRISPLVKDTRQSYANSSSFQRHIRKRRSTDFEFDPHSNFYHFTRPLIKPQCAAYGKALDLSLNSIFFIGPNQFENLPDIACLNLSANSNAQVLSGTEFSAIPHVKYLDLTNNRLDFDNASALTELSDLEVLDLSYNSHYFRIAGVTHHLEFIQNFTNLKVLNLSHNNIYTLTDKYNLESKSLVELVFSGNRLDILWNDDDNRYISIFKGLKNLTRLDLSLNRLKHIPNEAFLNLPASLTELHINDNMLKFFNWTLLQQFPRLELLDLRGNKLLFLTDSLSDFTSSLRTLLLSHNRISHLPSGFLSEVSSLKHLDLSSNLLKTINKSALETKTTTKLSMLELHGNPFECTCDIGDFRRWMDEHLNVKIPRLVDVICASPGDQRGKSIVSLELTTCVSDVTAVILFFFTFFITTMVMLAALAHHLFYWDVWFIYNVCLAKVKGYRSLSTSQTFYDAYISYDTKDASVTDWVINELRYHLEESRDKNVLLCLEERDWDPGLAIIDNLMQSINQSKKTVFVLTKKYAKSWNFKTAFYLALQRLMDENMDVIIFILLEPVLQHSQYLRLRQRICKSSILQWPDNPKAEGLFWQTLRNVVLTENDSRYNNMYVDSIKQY
The assay can be described thus: HEK293-Blue-hTLR-8 cells assay (SEAP reporter, R848 stimulation). The assay is classed as cell-based.
Settings: not given
The protocol:
The following tests were carried out in order to determine the activity of the compounds of formula (I) in HEK293-Blue-hTLR-7/8/9 cells assay.
HEK293-Blue-hTLR-8 Cells Assay:
A stable HEK293-Blue-hTLR-8 cell line was purchased from InvivoGen (Cat. #: hkb-htlr8, San Diego, California, USA). These cells were originally designed for studying the stimulation of human TLR8 by monitoring the activation of NF-κB. A SEAP (secreted embryonic alkaline phosphatase) reporter gene was placed under the control of the IFN-β minimal promoter fused to five NF-κB and AP-1-binding sites. The SEAP was induced by activating NF-κB and AP-1 via stimulating HEK-Blue hTLR8 cells with TLR8 ligands. Therefore the reporter expression was declined by TLR8 antagonist under the stimulation of a ligand, such as R848, for incubation of 20 hrs. The cell culture supernatant SEAP reporter activity was determined using QUANTI-Blue™ kit (Cat. #: rep-qb1, Invivogen, San Diego, Ca, USA) at a wavelength of 640 nm, a detection medium that turns purple or blue in the presence of alkaline phosphatase.
HEK293-Blue-hTLR8 cells were incubated at a density of 250,000˜450,000 cells/mL in a volume of 170 μL in a 96-well plate in Dulbecco's Modified Eagle's medium (DMEM) containing 4.5 g/L glucose, 50 U/mL penicillin, […], […], 2 mM L-glutamine, 10% (v/v) heat-inactivated fetal bovine serum with addition of 20 μL test compound in a serial dilution in the presence of final DMSO at 1% and 10 μL of 60 uM R848 in above DMEM, perform incubation under 37° C. in a CO2 incubator for 20 hrs. Then 20 μL of the supernatant from each well was incubated with 180 μL Quanti-blue substrate solution at 37° C. for 2 hrs and the absorbance was read at 620˜655 nm using a spectrophotometer. The signalling pathway that TLR8 activation leads to downstream NF-κB activation has been widely accepted, and therefore similar reporter assay was modified for evaluating TLR8 antagonist.
In the case of `C[C@@H]1CN(c2ccc(C#N)n3nccc23)C[C@H](C(=O)NC2CC3CCCC(C2)N3C)O1` (stereo partly drawn) [Example 35, (2R,6R)-4-(7-cyanopyrazolo[1,5-a]pyridin-4-yl)-6-methyl-N-(9-methyl-9-azabicyclo[3.3.1]nonan-3-yl)morpholine-2-carboxamide], the IC50 was 38 nM.

Still in this assay, the particulars now being: HEK293-Blue-hTLR-8 cells, R848 ligand, 20 hrs incubation; read-out: TLR8 IC50.
Regarding `C[C@@H]1CN(c2ccc(C#N)n3nccc23)C[C@H](C(=O)NC2C3CCC2CNC3)O1` (stereo partly drawn) [Example 26, (2R,6R)-N-(3-azabicyclo[3.2.1]octan-8-yl)-4-(7-cyanopyrazolo[1,5-a]pyridin-4-yl)-6-methyl-morpholine-2-carboxamide], the 50% inhibitory concentration (IC50) came out at 93 nM. As for `C[C@@H]1CN(c2ccc(C#N)n3nccc23)C[C@H](C(=O)NC2C3CNCC2COC3)O1` (stereo partly drawn) [Example 27, (2R,6R)-4-(7-cyanopyrazolo[1,5-a]pyridin-4-yl)-6-methyl-N-(3-oxa-7-azabicyclo[3.3.1]nonan-9-yl)morpholine-2-carboxamide], the concentration for half-maximal inhibition (IC50) was found to be 370 nM.

Turning to `C[C@@H]1CN(c2ccc(C#N)n3nccc23)C[C@H](C(=O)N2CCC3(CCNCC3)CC2)O1` [Example 28, 4-[(2R,6R)-2-(3,9-diazaspiro[5.5]undecane-3-carbonyl)-6-methyl-morpholin-4-yl]pyrazolo[1,5a]pyridine-7-carbonitrile], the concentration for half-maximal inhibition (IC50) worked out at 97 nM. In the case of `C[C@@H]1CN(c2ccc(C#N)n3nccc23)C[C@H](C(=O)NC2C3CNC[C@@H]32)O1` (stereo partly drawn) [Example 31, Trans-(2R,6R)-N-(3-azabicyclo[3.1.0]hexan-6-yl)-4-(7-cyanopyrazolo[1,5-a]pyridin-4-yl)-6-methyl-morpholine-2-carboxamide], the half-maximal inhibitory concentration (IC50) worked out at 72 nM. `C[C@@H]1CN(c2ccc(C#N)n3nccc23)C[C@H](C(=O)NC2CN(C)CC23CC3)O1` (stereo partly drawn) [Example 32, (2R,6R)-4-(7-cyanopyrazolo[1,5-a]pyridin-4-yl)-6-methyl-N-(5-methyl-5-azaspiro[2.4]heptan-7-yl)morpholine-2-carboxamide]: the half-maximal inhibitory concentration (IC50) was 31 nM. On the same count and under the same terms, as for `C[C@@H]1CN(c2ccc(C#N)n3nccc23)C[C@H](C(=O)NC2CC3CCC(C2)N3C)O1` (stereo partly drawn) [Example 33, (2R,6R)-4-(7-cyanopyrazolo[1,5-a]pyridin-4-yl)-6-methyl-N-(8-methyl-8-azabicyclo[3.2.1]octan-3-yl)morpholine-2-carboxamide], the figure is 58 nM. In the case of `C[C@@H]1CN(c2ccc(C#N)n3nccc23)C[C@H](C(=O)NC2CC3CCC2CN3C)O1` (stereo partly drawn) [Example 34, (2R,6R)-4-(7-cyanopyrazolo[1,5-a]pyridin-4-yl)-6-methyl-N-(2-methyl-2-azabicyclo[2.2.2]octan-5-yl)morpholine-2-carboxamide], the IC50 was 98 nM. For the compound `C[C@@H]1CN(c2ccc(C#N)n3nccc23)C[C@H](C(=O)NC2CC3CC2CN3)O1` (stereo partly drawn) [Example 36, (2R,6R)-N-(2-azabicyclo[2.2.1]heptan-5-yl)-4-(7-cyanopyrazolo[1,5-a]pyridin-4-yl)-6-methyl-morpholine-2-carboxamide], the 50% inhibitory concentration (IC50) came to 830 nM.

Consider `C[C@@H]1CN(c2ccc(C#N)n3nccc23)C[C@H](C(=O)NC2C3CCCC2CNC3)O1` (stereo partly drawn) [Example 37, (2R,6R)-N-(3-azabicyclo[3.3.1]nonan-9-yl)-4-(7-cyanopyrazolo[1,5-a]pyridin-4-yl)-6-methyl-morpholine-2-carboxamide], for which the IC50 was 18 nM. For `C[C@@H]1CN(c2ccc(Cl)n3nccc23)C[C@H](C(=O)NC2CCN(C)CC2)O1` [Example 38, (2R,6R)-4-(7-chloropyrazolo[1,5-a]pyridin-4-yl)-6-methyl-N-(1-methyl-4-piperidyl)morpholine-2-carboxamide], the concentration for half-maximal inhibition (IC50) turned out to be 7 nM. In the case of `C[C@@H]1CN(c2ccc(C#N)n3nccc23)C[C@H](C(=O)NCC(C)(C)CN)O1` [Example 39, (2R,6R)-N-(3-amino-2,2-dimethyl-propyl)-4-(7-cyanopyrazolo[1,5-a]pyridin-4-yl)-6-methyl-morpholine-2-carboxamide], the 50% inhibitory concentration (IC50) turned out to be 33 nM. As to `C[C@@H]1CN(c2ccc(C#N)n3nccc23)C[C@H](C(=O)NCC2CCNC2)O1` (stereo partly drawn) [Example 40, (2R,6R)-4-(7-cyanopyrazolo[1,5-a]pyridin-4-yl)-6-methyl-N-(pyrrolidin-3-ylmethyl)morpholine-2-carboxamide], the half-maximal inhibitory concentration (IC50) turned out to be 380 nM.

As for `C[C@@H]1CN(c2ccc(C#N)n3nccc23)C[C@H](C(=O)NC(C)(C)CN)O1` [Example 41, (2R,6R)-N-(2-amino-1,1-dimethyl-ethyl)-4-(7-cyanopyrazolo[1,5-a]pyridin-4-yl)-6-methyl-morpholine-2-carboxamide], the half-inhibitory concentration (IC50) was found to be 140 nM. For `C[C@@H]1CN(c2ccc(C#N)n3nccc23)C[C@H](C(=O)Nc2ccc(C(=O)N3CCNCC3)cc2)O1` [Example 42, (2R,6R)-4-(7-cyanopyrazolo[1,5-a]pyridin-4-yl)-6-methyl-N-[4-(piperazine-1-carbonyl)phenyl]morpholine-2-carboxamide], the IC50 came to 62 nM. For `C[C@H]1C[C@@H](N)CN(c2ccc(C#N)n3nccc23)C1` [Example 43, 4-[(3R,5S)-3-amino-5-methyl-1-piperidyl]pyrazolo[1,5-a]pyridine-7-carbonitrile], the half-inhibitory concentration (IC50) came to 12 nM. As for `C[C@H]1C[C@@H](NC(=O)[C@H](C)N)CN(c2ccc(C#N)n3nccc23)C1` [Example 44, (2S)-2-amino-N-[(3R,5S)-1-(7-cyanopyrazolo[1,5-a]pyridin-4-yl)-5-methyl-3-piperidyl]propanamide], the 50% inhibitory concentration (IC50) is 140 nM. With `C[C@H]1C[C@@H](NCC#N)CN(c2ccc(C#N)n3nccc23)C1` [Example 46, 4-[(3R,5S)-3-(cyanomethylamino)-5-methyl-1-piperidyl]pyrazolo[1,5-a]pyridine-7-carbonitrile], the IC50 is 240 nM. In the case of `C[C@@H]1CN(c2ccc(C#N)n3ncc(F)c23)C[C@H](C(=O)NC2CCN(C)CC2)O1` [Example 47, (2R,6R)-4-(7-cyano-3-fluoro-pyrazolo[1,5-a]pyridin-4-yl)-6-methyl-N-(1-methyl-4-piperidyl)morpholine-2-carboxamide], the IC50 is 5 nM.
